The values that follow come from patent US20240269158A1, “THERAPEUTIC AGENTS AND METHODS FOR TREATMENT OF BARTONELLOSIS” (THE ADMINISTRATORS OF THE TULANE EDUCATIONAL FUND, priority 2021, published 2024).

The test system of experiment [1] is B. henselae and B. vinsonii. Kind of experiment: MIC assay, summary over both species. It is filed as cell-based, Bartonella. As to conditions: BAPGM and Grace's liquid media. The procedure:
(§1) Optical density (OD) of 7-day old bacterial liquid culture that was grown from an individual colony was measured using a spectrophotometer (Bio-Rad, SmartSpec 300, 170-2501). Bacterial culture was then diluted down to an OD of 0.1 ? 3×10^8 cfu/ml with the respective media.
(§2) To determine the MIC of the antibiotics and for the visualization of the bacterial growth, a clear 96-well plate was used. Into each well of a 96-well plate, 50 μl of the 0.1 OD bacterial culture and 50 μl of the liquid media containing antibiotics were added to the wells bringing the total volume to 100 μl of 0.05 OD bacteria (CFU ? 1.5×10^7) in each well. Wells containing only bacteria with solvent used in the dilution of the antibiotics served as a positive control to verify the growth of bacteria. As a negative control, wells containing only media and solvents were used. Each concentration of diluted antibiotic was run in 4 replicates to minimize the error rate. The 96-well plate was covered with the lid and incubated at 37° C. with 5% CO2. OD of the culture was read after 48 hrs and 96 hrs using a hybrid multi-mode microplate reader (Biotek, Synergy H4 hybrid reader) at OD600. The assay was repeated three times.
The determination of susceptibility to therapeutic agents was performed in liquid culture media. Six different therapeutic agents were tested with multiple different concentrations against B. henselae and B. vinsonii. Therapeutic agent concentrations tested were as follows: Ceftriaxone 0.001, 0.01, 0.1, 0.3, 0.5, 1, 2, and 5 μg/ml; doxycycline 0.001, 0.01, 0.1, 0.3, 0.5, 1, 2, 5, and 10 μg/ml, gentamicin: 0.01, 0.1, 0.3, 0.5, 1, 2, 4, 8, and 16 μg/ml, and azithromycin: 0.001, 0.005, 0.02, 0.1, 0.3, 0.5, 1, 2, 5, and 10 μg/ml, were tested based on previous antibiotic susceptibility studies. The following azlocillin dilutions were included: 0.001, 0.005, 0.01, 0.02, 0.5, 1, 2, and 5 μg/ml. The ampicillin dilutions included were as follows: 0.001, 0.005, 0.01, 0.02, 0.5, 1, 2, 4, and 8 μg/ml. Both the species of Bartonella were susceptible to all the antibiotics that were used in BAPGM and Grace's culture liquid mediums. MICs ranged from 0.01 to 0.1 μg/ml for ceftriaxone, doxycycline, and ampicillin, 2.0-4.0 μg/ml for gentamicin, 0.1-0.5 μg/ml for azithromycin, and 0.001-0.01 μg/ml for azlocillin. […] However, both the bacteria were not susceptible towards any of the antibiotics when tested in Schneider's insect medium (Table 1).

The subject of experiment [2] is B. henselae. As to conditions: cited from earlier work.
Experiment [3] relates to B. vinsonii. The experiment in a line: Cell-free, liquid culture MBC assay. It is filed as cell-based, B. vinsonii subsp. berkhoffii. As to conditions: 96 hrs, plated on blood agar. The procedure: (§3) The B. henselae strains used were San Antonio 2, 267HO04, a human clinical isolate and B. vinsonii subsp. berkhoffii. Both the bacteria were initially grown on tryptic soy agar (TSA) supplemented with 5% defibrinated sheep blood plates that were either pre-made (Remel, R01198) or homemade, in a humidified atmosphere at 37° C. with 5% CO2 for 7 days. For the preparation of liquid cultures, an individual well-grown colony from the plate was resuspended in 15 ml Falcon tubes containing 3 mL of either Schneider's insect media supplemented with 10% FBS, or Grace's insect media (Gibco, 11605-094) supplemented with 10% FBS, or BAPGM serum-free liquid media. The cultures grew for 7 more days in the atmosphere as above without shaking. The number of viable bacteria was determined by either plating serial dilutions of the culture on plates for CFU or by live/dead staining. Before every experiment, bacteria were mixed well and passed through 22-gauge needle to break large clumps of bacteria.
Briefly, the bacterial culture that was treated with therapeutic agents for 96 hrs was collected into a 1.5 ml microcentrifuge tubes and centrifuged at 7000 rpm for 10 min. The supernatant was removed, and the bacterial pellet was washed with 1×PBS twice. The bacterial pellet was then resuspended in 100 μL of 1×PBS, plated onto blood agar plates and incubated at 37° C. with 5% CO2 for about 14 days. This assay was repeated three times with all the 6 different antibiotics (azlocillin, azithromycin, ceftriaxone, doxycycline, gentamicin and ampicillin) and at different concentrations.
(§4) Therapeutic agent stocks were prepared in the following solvents: 10 mg/ml of ceftriaxone (USP), doxycycline (Fisher scientific, D9891-1G), gentamicin (Fisher scientific, 1405-41-0), ampicillin (Fisher scientific, 69-52-3) and azlocillin (Flightpath) in sterile cell culture grade water, whereas 5 mg/ml of azithromycin (Sigma, PZ0007-5MG) was dissolved in sterile cell culture grade DMSO. Antibiotics were then aliquoted and stored at either −80° C. or −20° C. until further use. On the day of assay, these stock concentrations were diluted to 1 mg/ml and 100 μg/ml in the respected bacterial culture media for MIC and cell-free, liquid culture MBC assays. For the DH82 cell-based MBC assay, antibiotics were diluted in EMEM media supplemented with 15% heat inactivated FBS.
For this assay, both B. henselae and B. vinsonii were grown in Grace's insect media and were tested against all of the 6 antibiotics (ceftriaxone, doxycycline, gentamicin, azithromycin, azlocillin, ampicillin). […] However, ceftriaxone, gentamicin, azithromycin, and azlocillin were all bactericidal and completely eliminated the growth at concentrations below 10 µg/ml. Table 2 provides comparison of MBCs for B. henselae and B. vinsonii strains in cell-free liquid culture medium determined by incubating the bacteria with antibiotics in a 96-well plate and plating on tryptic soy agar supplemented with 5% sheep blood. Additionally, MBC for B. henselae determined by DH82 cell-based assay (right column) is provided.

Experiment [4] has as its system B. henselae. Kind of experiment: MIC assay in liquid culture media (OD600). The class given is cell-based, Bartonella henselae. The procedure:
as §3, §1, §2, §4
(§5) The determination of susceptibility to therapeutic agents was performed in liquid culture media. Six different therapeutic agents were tested with multiple different concentrations against B. henselae and B. vinsonii. Therapeutic agent concentrations tested were as follows: Ceftriaxone 0.001, 0.01, 0.1, 0.3, 0.5, 1, 2, and 5 μg/ml; doxycycline 0.001, 0.01, 0.1, 0.3, 0.5, 1, 2, 5, and 10 μg/ml, gentamicin: 0.01, 0.1, 0.3, 0.5, 1, 2, 4, 8, and 16 μg/ml, and azithromycin: 0.001, 0.005, 0.02, 0.1, 0.3, 0.5, 1, 2, 5, and 10 μg/ml, were tested based on previous antibiotic susceptibility studies. The following azlocillin dilutions were included: 0.001, 0.005, 0.01, 0.02, 0.5, 1, 2, and 5 μg/ml. The ampicillin dilutions included were as follows: 0.001, 0.005, 0.01, 0.02, 0.5, 1, 2, 4, and 8 μg/ml. Both the species of Bartonella were susceptible to all the antibiotics that were used in BAPGM and Grace's culture liquid mediums. […]

Experiment [5] relates to B. vinsonii. The experiment in a line: MIC assay in liquid culture media (OD600). The class given is cell-based, B. vinsonii subsp. berkhoffii. The following applies: Grace's insect media. The procedure: as §3, §1, §2, §4, §5
The mark [6] stands for this setting: Bartonella henselae, BAPGM, read-out: MIC.
The mark [7] stands for this setting: Bartonella henselae, Grace's insect media, read-out: MIC.
Setting [8] is: Bartonella henselae, Schneider's insect medium, read-out: MIC.

≈ marks a conversion by molar mass, not a printed value. Where two headings read alike, the source gives them in different places.

As a reminder, the MBC is the lowest tested concentration that kills the bacteria rather than only halting them. Broadly, the MIC is the lowest concentration found to suppress growth. Consider `CC[C@H]1OC(=O)[C@H](C)[C@@H](O[C@H]2C[C@@](C)(OC)[C@@H](O)[C@H](C)O2)[C@H](C)[C@@H](O[C@@H]2O[C@H](C)C[C@H](N(C)C)[C@H]2O)[C@](C)(O)C[C@@H](C)CN(C)[C@H](C)[C@@H](O)[C@]1(C)O` [Azithromycin, azithromycin], for which the MICs ranged in experiment [1] is 0.1 to 0.5 µg/mL. Also, the “activity against growing bacterial culture” value in experiment [2] (growing culture) is “effective”. Moreover, the “activity against stationary phase B. henselae” value in experiment [2] (stationary phase) is “very poor activity”. Also, the MBC in experiment [3] (read-out: MBC) was 2 to 5 µg/mL (≈ 2.67 to 6.68 µM). Besides, the MIC is 0.005 to 0.02 µg/mL in experiment [4] (setting [6]), 0.3 to 0.5 µg/mL in experiment [4] (setting [7]), greater than 0.02 µg/mL in experiment [4] (setting [8]) and 0.1 to 0.3 µg/mL in experiment [5] (read-out: MIC).
For `CC1(C)S[C@@H]2[C@H](NC(=O)[C@H](NC(=O)N3CCNC3=O)c3ccccc3)C(=O)N2[C@H]1C(=O)O` [Azlocillin, azlocillin], the MICs ranged in experiment [1] was in the range of 0.001 to 0.01 µg/mL. Besides, the “susceptibility / inhibition of growth” value in experiment [1] is “most effective in inhibiting the growth of both the species of Bartonella”. Also, in experiment [3] (read-out: MBC), the MBC lay in the range of 0.25 to 0.5 µg/mL (≈ 0.542 to 1.08 µM). Also, the MIC is 0.01 to 0.02 µg/mL in experiment [4] (setting [6]), 0.005 to 0.01 µg/mL in experiment [4] (setting [7]), greater than 2 µg/mL in experiment [4] (setting [8]) and 0.001 to 0.005 µg/mL in experiment [5] (read-out: MIC).
Consider `CO/N=C(\C(=O)N[C@@H]1C(=O)N2C(C(=O)O)=C(CSc3nc(=O)c(=O)[nH]n3C)CS[C@H]12)c1csc(N)n1` [Ceftriaxone, ceftriaxone], for which the MBC in experiment [3] (read-out: MBC) was 0.5 to 1 µg/mL (≈ 0.902 to 1.8 µM). Further, the MIC in experiment [4] (setting [6]) was 0.01 to 0.1 µg/mL; in experiment [4] (setting [7]), 0.01 to 0.1 µg/mL; in experiment [4] (setting [8]), greater than 0.3 µg/mL; in experiment [5] (read-out: MIC) it was 0 to 0.01 µg/mL.
Consider gentamicin, for which the MICs ranged in experiment [1] is 2.0 to 4.0 µg/mL. In experiment [3], this molecule gave an MBC of 4.0 to 8.0 µg/mL. In addition, the MIC in experiment [4] (BAPGM) is 0.1 to 0.5 µg/mL; in experiment [4] (Grace's insect media) it was 2.0 to 4.0 µg/mL; in experiment [4] (Schneider's insect medium), greater than 1 µg/mL; in experiment [5] it was 2.0 to 4.0 µg/mL.
